Data reported in US12043670B2, “Anti-BCMA antibody-drug conjugates and methods of use” (Eisai R&D Management Co., Ltd., priority 2020, dated 2024).
Where a SMILES comes first, the peptide text is derived from it. [ ]: non-standard residue; d: D form. Dolaproine = CO[C@@H]([C@@H]1CCCN1)[C@@H](C)C(=O)O; Dil = CC[C@H](C)[C@H](NC)[C@@H](CC(=O)O)OC; NMeV = CN[C@H](C(=O)O)C(C)C

What was measured:
Type in all cases: cell-based, human
MM1.S cells = experiment: CellTiter-Glo cell viability, MM1.S; settings: MM1S cells, 6 days; for LD50 / GI50: CellTiter-Glo; for GI50: read-out: GI50; for RminAve: negative = cell death vs T0
MOLP8 cells = experiment: CellTiter-Glo cell viability, MOLP8; settings: MOLP8 cells, 6 days; for LD50 / GI50: CellTiter-Glo; for GI50: read-out: GI50; for RminAve: negative = cell death vs T0
AMO-1 cells = experiment: 6-day CellTiter-Glo cell viability, AMO-1; settings: AMO1 cells, 6 days; for LD50 / GI50: CellTiter-Glo; for GI50: read-out: GI50; for RminAve: negative = cell death vs T0
NCI-H929 cells = experiment: CellTiter-Glo cell viability, NCI-H929 (normal serum); settings: NCIH929 cells, 6 days; for LD50 / GI50: CellTiter-Glo; for GI50: read-out: GI50; for RminAve: negative = cell death vs T0
MM1.R cells = experiment: CellTiter-Glo cell viability, MM1.R; settings: MM1R cells, 6 days; for LD50 / GI50: CellTiter-Glo; for GI50: read-out: GI50; for RminAve: negative = cell death vs T0
RPMI-8226 cells = experiment: 6-day CellTiter-Glo cell viability, RPMI-8226; settings: RPMI8226 cells, 6 days; for LD50 / GI50: CellTiter-Glo; for GI50: read-out: GI50; for RminAve: negative = cell death vs T0
KMS-11 cells = experiment: 6-day CellTiter-Glo cell viability, KMS-11; settings: KMS11 cells, 6 days; for LD50 / GI50: CellTiter-Glo; for GI50: read-out: GI50; for RminAve: negative = cell death vs T0
EJM cells = experiment: 6-day CellTiter-Glo cell viability, EJM; settings: EJM cells, 6 days; for LD50 / GI50: CellTiter-Glo; for GI50: read-out: GI50; for RminAve: negative = cell death vs T0
LP-1 cells = experiment: 6-day CellTiter-Glo cell viability, LP-1; settings: LP1 cells, 6 days; for LD50 / GI50: CellTiter-Glo; for GI50: read-out: GI50; for RminAve: negative = cell death vs T0
OPM2 cells = experiment: CellTiter-Glo cell viability, OPM2 (normal serum); settings: OPM2 cells, 6 days; for LD50 / GI50: CellTiter-Glo; for GI50: read-out: GI50; for RminAve: negative = cell death vs T0
U266B1 cells = experiment: 6-day CellTiter-Glo cell viability, U266B1; settings: U266B1 cells, 6 days; for LD50 / GI50: CellTiter-Glo; for GI50: read-out: GI50; for RminAve: negative = cell death vs T0

`CC[C@H](O)[C@@H](C)[C@H]1O[C@@H]1C[C@@](C)(O)/C=C/C=C(\C)[C@H]1OC(=O)C[C@H](O)CC[C@@](C)(O)[C@@H](OC(=O)N2CCN(C3CCCCCC3)CC2)/C=C/[C@@H]1C` [E7107 (D11)] was tested, and the “AUC (nM * % relative viability)” value (MM1.S cells) was 380.5913 nM * % relative viability, the LD50 (MM1.S cells) was 18.155 nM and the GI50 (MM1.S cells) was 3.51 nM. The RminAve (MM1.S cells) was −99.7761%, the “AUC (nM * % relative viability)” value (MOLP8 cells) was 361.7797 nM * % relative viability and the LD50 (MOLP8 cells) was 16.8329 nM. For the same compound, the GI50 (MOLP8 cells) was 2.43 nM, the RminAve (MOLP8 cells) was −99.6765% and the “AUC (nM * % relative viability)” value (AMO-1 cells) was 487.7156 nM * % relative viability. It also gave an LD50 (AMO-1 cells) of 50.4287 nM, a GI50 (AMO-1 cells) of 14.9 nM and a RminAve (AMO-1 cells) of −96.8372%. The “AUC (nM * % relative viability)” value (NCI-H929 cells) was 321.415 nM * % relative viability, the LD50 (NCI-H929 cells) was 5.836 nM and the GI50 (NCI-H929 cells) was 2.81 nM. For the same compound, the RminAve (NCI-H929 cells) was −99.8426%, the “AUC (nM * % relative viability)” value (MM1.R cells) was 374.4113 nM * % relative viability and the LD50 (MM1.R cells) was 16.5876 nM. The GI50 (MM1.R cells) was 3.33 nM, the RminAve (MM1.R cells) was −99.831% and the “AUC (nM * % relative viability)” value (RPMI-8226 cells) was 359.1272 nM * % relative viability. For the same compound, the LD50 (RPMI-8226 cells) was 10.8782 nM, the GI50 (RPMI-8226 cells) was 3.59 nM and the RminAve (RPMI-8226 cells) was −99.7762%. The “AUC (nM * % relative viability)” value (KMS-11 cells) was 382.1527 nM * % relative viability, the LD50 (KMS-11 cells) was 13.1801 nM and the GI50 (KMS-11 cells) was 5.03 nM. The RminAve (KMS-11 cells) was −99.2702%, the “AUC (nM * % relative viability)” value (EJM cells) was 434.2294 nM * % relative viability and the LD50 (EJM cells) was 22.175 nM. The GI50 (EJM cells) was 9.45 nM, the RminAve (EJM cells) was −99.071% and the “AUC (nM * % relative viability)” value (LP-1 cells) was 313.7701 nM * % relative viability. It also gave an LD50 (LP-1 cells) of 6.2485 nM, a GI50 (LP-1 cells) of 2.2 nM and a RminAve (LP-1 cells) of −99.6676%. The “AUC (nM * % relative viability)” value (OPM2 cells) was 289.9829 nM * % relative viability, the LD50 (OPM2 cells) was 4.7541 nM and the GI50 (OPM2 cells) was 1.67 nM. The RminAve (OPM2 cells) was −99.6884%, the “AUC (nM * % relative viability)” value (U266B1 cells) was 422.0108 nM * % relative viability and the LD50 (U266B1 cells) was 18.2733 nM. It also gave a GI50 (U266B1 cells) of 8.76 nM and a RminAve (U266B1 cells) of −95.1886%.
For `CC[C@H](C)[C@@H]([C@@H](CC(=O)N1CCC[C@H]1[C@H](OC)[C@@H](C)C(=O)N[C@@H](Cc1ccccc1)C(=O)O)OC)N(C)C(=O)[C@@H](NC(=O)[C@@H](NC)C(C)C)C(C)C` [MMAF] (H-[NMeV]V[Dil][Dolaproine]F-OH), the “AUC (nM * % relative viability)” value (MM1.S cells) was 726.0671 nM * % relative viability, the LD50 (MM1.S cells) was 615.7256 nM and the GI50 (MM1.S cells) was 296 nM. For the same compound, the RminAve (MM1.S cells) was −99.8301%, the “AUC (nM * % relative viability)” value (MOLP8 cells) was 788.7538 nM * % relative viability and the LD50 (MOLP8 cells) was 4689.579 nM. The GI50 (MOLP8 cells) was 254 nM, the RminAve (MOLP8 cells) was −58.9492% and the “AUC (nM * % relative viability)” value (AMO-1 cells) was 640.894 nM * % relative viability. For the same compound, the LD50 (AMO-1 cells) was 243.7059 nM, the GI50 (AMO-1 cells) was 101 nM and the RminAve (AMO-1 cells) was −99.5356%. The “AUC (nM * % relative viability)” value (NCI-H929 cells) was 734.8893 nM * % relative viability, the LD50 (NCI-H929 cells) was 676.4428 nM and the GI50 (NCI-H929 cells) was 321 nM. For the same compound, the RminAve (NCI-H929 cells) was −99.782%, the “AUC (nM * % relative viability)” value (MM1.R cells) was 721.5643 nM * % relative viability and the LD50 (MM1.R cells) was 584.6173 nM. The GI50 (MM1.R cells) was 281 nM, the RminAve (MM1.R cells) was −99.7818% and the “AUC (nM * % relative viability)” value (RPMI-8226 cells) was 714.2788 nM * % relative viability. It also gave an LD50 (RPMI-8226 cells) of 557.1533 nM, a GI50 (RPMI-8226 cells) of 224 nM and a RminAve (RPMI-8226 cells) of −95.3537%. The “AUC (nM * % relative viability)” value (KMS-11 cells) was 706.6578 nM * % relative viability, the LD50 (KMS-11 cells) was 490.3828 nM and the GI50 (KMS-11 cells) was 235 nM. For the same compound, the RminAve (KMS-11 cells) was −98.8009%, the “AUC (nM * % relative viability)” value (EJM cells) was 600.0131 nM * % relative viability and the LD50 (EJM cells) was 194.3761 nM. For the same compound, the GI50 (EJM cells) was 51.5 nM, the RminAve (EJM cells) was −98.8551% and the “AUC (nM * % relative viability)” value (LP-1 cells) was 724.5606 nM * % relative viability. For the same compound, the LD50 (LP-1 cells) was 761.0403 nM, the GI50 (LP-1 cells) was 223 nM and the RminAve (LP-1 cells) was −97.9742%. For the same compound, the “AUC (nM * % relative viability)” value (OPM2 cells) was 740.134 nM * % relative viability, the LD50 (OPM2 cells) was 723.9832 nM and the GI50 (OPM2 cells) was 348 nM. For the same compound, the RminAve (OPM2 cells) was −99.7203%, the “AUC (nM * % relative viability)” value (U266B1 cells) was 661.824 nM * % relative viability and the LD50 (U266B1 cells) was 192.3371 nM. It also gave a GI50 (U266B1 cells) of 67.8 nM and a RminAve (U266B1 cells) of −89.2656%.
`N.N.[Cl][Pt][Cl]` [cisplatin] showed a GI50 (MM1.S cells) of 10200 nM, a RminAve (MM1.S cells) of −99.8687% and a GI50 (MOLP8 cells) of 5070 nM. For the same compound, the RminAve (MOLP8 cells) was −99.8824%, the GI50 (AMO-1 cells) was 8590 nM and the RminAve (AMO-1 cells) was −99.8648%. It also gave a GI50 (NCI-H929 cells) of 21400 nM, a RminAve (NCI-H929 cells) of −99.945% and a GI50 (MM1.R cells) of 7300 nM. For the same compound, the RminAve (MM1.R cells) was −99.9355%, the GI50 (RPMI-8226 cells) was 16300 nM and the RminAve (RPMI-8226 cells) was −99.2206%. For the same compound, the GI50 (KMS-11 cells) was 14400 nM, the RminAve (KMS-11 cells) was −99.8489% and the GI50 (EJM cells) was 30100 nM. It also gave a RminAve (EJM cells) of −99.8757%, a GI50 (LP-1 cells) of 50100 nM and a RminAve (LP-1 cells) of −97.8184%. For the same compound, the GI50 (OPM2 cells) was 17000 nM, the RminAve (OPM2 cells) was −99.784% and the GI50 (U266B1 cells) was 39900 nM. It also gave a RminAve (U266B1 cells) of −99.4122%.
